Measurements as given in patent US6713506B2, “Tea polyphenol esters and analogs thereof for cancer prevention and treatment” (University of South Florida, priority 2000, dated 2004).
Entries after “also recorded” stand apart in the source; their conditions may differ.

What was measured:
[1] = target: chymotrypsin-like activity of purified 20S proteasome; assay type: biochemical; conditions: read-out: IC50 towards the chymotrypsin-like activity of purified 20S proteasome
Procedure: FIG. 8. […] A). […] Initially, 0.5 μg of purified 20S proteasome is incubated with 20 μM of a fluorogenic peptide substrate, Suc-Leu-Leu-Val-Tyr-AMC, for 30 min at 37° C. in 100 μl of assay buffer (20 mM Tris-HCl, pH 8.0) with various concentrations of tannic acid. After incubation, the reaction mixture is diluted to 200 μl with the assay buffer, followed by measurement of the hydrolyzed 7-amido-4-methyl-coumarin (AMC) groups using a fluorometer with an excitation filter of 380 nm and an emission filter of 460 nm. B). […] Tannic acid (0.3 μg/ml) and Glucose (180 μg/ml) are used in the proteasome activity assay as described above. C). […] Purified calpain I (3 μg) protein is incubated with 40 μM of a fluorogenic peptide substrate, Suc-Leu-Tyr-AMC, for 30 min at 37° C. in 100 μl of assay buffer (50 mM Tris-HCl, pH 7.5, containing 50 mM NaCl, 1 mM EDTA, 1 mM EGTA, 5 mM β-Mercaptoethanol, 5 mM CaCl2, and 0.1% CHAPS) in the absence (control) or presence of 5 μg/ml of tannic acid or 0.18 μg/ml of calpeptin (calpain inhibitor).
Inhibition of the proteasome activity in vitro by tea polyphenols—To measure the 20S proteasome chymotrypsin-like activity, 0.5 μg of a purified 20S proteasome (Calbiochem) is incubated with 20 μM of a fluorogenic peptide substrate, Suc-Leu-Leu-Val-Tyr-AMC (Calbiochem), for 30 min at 37° C. in 100 μl of assay buffer (20 mM Tris-HCl, pH 8.0), with or without tea polyphenols (purity >95%; Sigma) or tea extract. After incubation, the reaction mixture is diluted to 200 μl with the assay buffer, followed by measurement of the hydrolyzed 7-amido-4-methyl-coumarin (AMC) groups using a VersaFluor™ Fluorometer with an excitation filter of 380 nm and an emission filter of 460 nm (Bio-Rad).

[2] = test system: SV-40-transformed WI-38 cells (VA-13); assay: Cell cycle analysis by flow cytometry, VA-13 cells; assay type: cell-based, human; conditions: VA-13, 10 μM
Procedure: FIG. 6. Cell cycle analysis. Asynchronous Jurkat, LNCaP, WI-38, and VA-13 cells are treated with 10 μM EGCG and harvested at the time points indicated. Cells are prepared and analyzed by flow cytometry as described in the The Materials and Methods section of Example 1. Growth arrest is determined by the increase in the percentage of G1 population.
Cell cycle analysis—Cell cycle analysis based on DNA content is performed as follows. Cells are harvested, counted and washed twice with PBS. Cells (5×10^6 ) are then suspended in 0.5 ml PBS, pipetted and fixed in 5 ml of 70% ethanol for at least 2 h at −20° C. Cells are centrifuged, resuspended in 1 ml of propidium iodide staining solution (50 μg propidium iodide, 100 units RNase A and 1 mg glucose per ml PBS) and incubated at room temperature for 30 min. The cells are then analyzed with FACScan (Becton Dickinson Immunocytometry, CA.), ModFit LT and WinMDI V.2.8 cell cycle analysis software (Verity Software, Topsham, Me.). The cell cycle distribution is shown as the percentage of cells containing G1, S, G2, and M DNA judged by propidium iodide staining.

[3] = target: T1, trypsin-like activity in living Jurkat T cells (Homo sapiens, UniProt Q99436); assay: Proteasome trypsin-like activity in living Jurkat T cells; assay type: cell-based
T1 construct: endogenous in cells; host or cells: Jurkat T cells (whole cell extract or intact cells)
Procedure: Inhibition of the proteasome activity in living cells by tea polyphenols—To measure inhibition of the chymotrypsin-like activity in living tumor cells, Jurkat T (1×10^5 cells/ml/well), MCF7 or PC-3 cells (1×10^4 cells/ml/well) are cultured in 24-well plates. These cells are first incubated for 12 h with various concentrations of EGCG, EGC, β-lactone or LLnL, followed by an additional 2 h-incubation with fluorogenic peptide substrates, Suc-Leu-Leu-Val-Tyr-AMC for the chymotrypsin-like activity and Z-Gly-Gly-Arg-AMC for the trypsin-like activity. After that, cell medium (200 μl per sample) is collected and used for measurement of free AMCs.

[4] = target: T2, chymotrypsin-like activity in living breast (MCF7) cancer cells (Homo sapiens, UniProt P28074); assay: Proteasome chymotrypsin-like activity in living MCF7 cells; assay type: cell-based
T2 construct: endogenous in cells; host or cells: MCF7 cells (intact)
Procedure: FIG. 16(A) The fluorogenic calpain I peptide substrate Suc-Leu-Tyr-AMC (S; 40 μM) is incubated with either a purified calpain I (P; 3 μg) or buffer (Buff) at 30° C. for 30 min with or without 10 μM calpeptin, EGCG or EGC, followed by measuring AMCs (the product), as described in the text. (B) T1 or T2 cells are treated with LLL at either 10 (A-C) or 50 μM (D, E), followed by Western blotting with indicated antibodies.(C) MCF-7 cells, pre-incubated with EGCG at an indicated concentration for 12 h, are incubation for additional 12 h with 20 μM Suc-Leu-Leu-Val-Tyr-AMC (the peptide substrate for the proteasomal chymotryptic activity), followed by measurement of AMCs in medium (as described in the grant and the manuscript). (D) Cell cycle-dependent p27 degradation. PCI-13 head and neck tumor cells are treated with aphidicolin (5 μg/ml) for 24 h (0 h), followed by release for up to 24 h. […]
(b) The peptide substrate for the proteasomal chymotrypsin-like activity, Suc-Leu-Leu-Val-Tyr-AMC, is used to measure the proteasome activity in intact Jurkat, MCF-7 and PC-3 cells, which is inhibitable by co-incubation with EGCG (FIG. 16C). […] After that, medium is collected and the liberated AMCs in the medium are measured by fluorometer to measure in vivo potency and selectivity of tea polyphenols.

Sequence of chymotrypsin-like activity of purified 20S proteasome (Q9P992 whole entry): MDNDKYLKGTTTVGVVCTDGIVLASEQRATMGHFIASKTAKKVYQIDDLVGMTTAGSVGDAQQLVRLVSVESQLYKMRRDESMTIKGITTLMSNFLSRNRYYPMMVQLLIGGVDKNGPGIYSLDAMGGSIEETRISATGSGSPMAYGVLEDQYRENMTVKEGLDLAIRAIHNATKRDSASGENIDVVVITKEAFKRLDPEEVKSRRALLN

Compound | IC50 [1] | increase in G1 population ([2]; 12 h) | increase in G1 population ([2]; 36 h) | inhibition of trypsin-like activity in living Jurkat T cells (in words) [3] | inhibition of chymotrypsin-like activity in living MCF7 cells (in words) [4]
Oc1cc(O)c2c(c1)O[C@H](c1cc(O)c(O)c(O)c1)[C@H](O)C2 [EGC, (−)-epigallocatechin] | 1200 µM |  |  |  | 
O=C(O[C@@H]1Cc2c(O)cc(O)cc2O[C@@H]1c1cc(O)c(O)c(O)c1)c1cc(O)c(O)c(O)c1 [EGCG, (−)-epigallocatechin-3-gallate] |  | 21% | 33% | does not significantly inhibit | inhibitable; also recorded: inhibits
